Experiments:
[1] = acid dissociation constants by potentiometric titration; assay type: physicochemical
Method: The acid dissociation constants were determined by potentiometric titration method. […] The first is XH2+, where the carboxylic acid is not ionized but the secondary amine is; the molecule has an overall +1 charge, and the main species at pHs below 4.0. The second is XH, where both the carboxylic acid and the tertiary amine are ionized. […] The third is X−, where the carboxylic acid is ionized but the tertiary amine is not.

[2] = system: ovulation and endometrial thickness in healthy women; assay: 3-menstrual cycle study in healthy women; assay type: in vivo, human; conditions: transvaginal ultrasound, 150 mg QD and 200 mg BID
[3] = system: women with endometriosis; assay: Phase 3 studies EM-I and EM-II with extension studies EM-III and EM-IV (pooled efficacy, pharmacodynamics, safety); assay type: in vivo, human; conditions: for Depressed Mood, depression, depressive symptoms and or tearfulness: Placebo 17 (2.3); for Mood altered, mood swings: Placebo 25 (3.4); for Completed Suicide: EM-1 and EM-2; for patients with a Z-score below the normal lower bound of −2.0: following 12 months of treatment
From the text: Each placebo-controlled study assessed the reduction in endometriosis-associated pain over 6 months of treatment. More than 75 percent of women who completed Study EM-I and EM-II enrolled in the extension studies for an additional 6 month treatment period. Subjects were followed for up to 12 months post-treatment. Women in these studies also provided a daily self-assessment of their endometriosis pain using the Numeric Rating Scale (NRS), on a scale ranging from 0 (no pain) to 10 (worst pain ever). […] The effects of elagolix on menstrual bleeding were evaluated for up to 12 months using an electronic daily diary where subjects classified their flow of menstrual bleeding (if present in the last 24 hours) as spotting, light, medium, or heavy. […] The population age range was 18-49 years old. Women who completed six months of treatment and met eligibility criteria continued treatment in two blinded six-month extension studies, for a total treatment duration of up to 12 months. In the placebo-controlled and extension clinical studies, BMD was measured by DXA. Changes observed in BMD at other anatomical sites (femoral neck, total hip) were generally smaller than lumbar spine.

[4] = pharmacokinetics in specific populations (renal and hepatic impairment); assay type: in vivo, human
From the text: The mean exposures are similar for women with moderate to severe or end stage renal disease (including women on dialysis) compared to women with normal renal function.
Elagolix exposures (Cmax and AUC) are similar between women with normal hepatic function and women with mild hepatic impairment. Elagolix exposures in women with moderate and severe hepatic impairment are approximately 3-fold and 7-fold, respectively, of exposures from women with normal hepatic function.

[5] = drug interaction studies: elagolix in the presence of co-administered drug; assay type: in vivo, human; conditions: for AUC Ratio (co-administration vs. elagolix alone) / Cmax Ratio (co-administration vs. elagolix alone): elagolix 150 mg single dose
Method: Drug interaction studies were performed with elagolix and other drugs that are likely to be co-administered and with drugs commonly used as probes for pharmacokinetic interactions.

[6] = biological target: T1, organic anion transporting polypeptide (OATP)1B1 (Homo sapiens, UniProt Q9Y6L6); assay: substrate status: OATP1B1
T1 sequence (Q9Y6L6 1-691): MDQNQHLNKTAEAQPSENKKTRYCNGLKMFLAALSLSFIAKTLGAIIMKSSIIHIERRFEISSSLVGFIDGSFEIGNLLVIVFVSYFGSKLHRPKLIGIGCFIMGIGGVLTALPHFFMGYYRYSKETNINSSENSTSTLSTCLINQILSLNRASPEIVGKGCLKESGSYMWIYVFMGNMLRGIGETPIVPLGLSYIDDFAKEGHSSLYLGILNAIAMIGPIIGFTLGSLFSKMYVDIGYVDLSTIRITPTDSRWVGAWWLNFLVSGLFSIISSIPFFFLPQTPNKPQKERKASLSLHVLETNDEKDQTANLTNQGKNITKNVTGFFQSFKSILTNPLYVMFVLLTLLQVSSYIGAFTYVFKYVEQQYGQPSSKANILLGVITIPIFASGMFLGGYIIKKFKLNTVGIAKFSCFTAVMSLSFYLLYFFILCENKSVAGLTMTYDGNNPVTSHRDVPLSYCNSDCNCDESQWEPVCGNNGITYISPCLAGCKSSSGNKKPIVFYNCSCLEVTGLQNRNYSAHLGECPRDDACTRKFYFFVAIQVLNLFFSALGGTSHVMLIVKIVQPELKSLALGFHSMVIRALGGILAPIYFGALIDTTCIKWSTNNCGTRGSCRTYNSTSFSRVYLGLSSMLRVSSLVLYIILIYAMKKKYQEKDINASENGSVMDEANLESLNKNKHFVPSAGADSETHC
From the text: Elagolix is a substrate of CYP3A, P-gp, and organic anion transporting polypeptide (OATP)1B1. Clinically meaningful interactions are not expected when elagolix is co-administered with drugs that inhibit CYP3A or P-gp.

[7] = system: tumors in mouse; assay: 2-year carcinogenicity study in mice; assay type: in vivo; conditions: any dose
[8] = system: tumors in rat; assay: 2-year carcinogenicity study in rats; assay type: in vivo
From the text: The rat tumors were identified as being species-specific and of negligible relevance to humans. This conclusion is based on a follow-on thyroid and hepatic effects-related investigative study performed to document the possibility that thyroid and liver tumors may be specific to rat and occurred via induction of hepatic drug metabolizing enzymes at the high dose.

[9] = system: reproductive organs of monkeys; assay: repeat-dose study in monkeys; assay type: in vivo, monkey; conditions: repeat-dose, 75, 150, 300 and 600 mg/kg/day, all doses
From the text: Based on pharmacologic actions of elagolix in humans a reversible effect on fertility may be expected in women.

[10] = Ketoconazole 400 mg once daily, N 11
[11] = Rifampin 600 mg single dose, N 12

## COc1cccc(-c2c(C)n(Cc3c(F)cccc3C(F)(F)F)c(=O)n(C[C@H](NCCCC(=O)O)c3ccccc3)c2=O)c1F [elagolix, 4-((R)-2-[5-(2-fluoro-3-methoxy-phenyl)-3-(2-fluoro-6-trifluoromethyl-benzyl)-4-methyl-2,6-dioxo-3,6-dihydro-2H-pyrimidin-1-yl]-1-phenyl-ethylamino)-butyric acid]
[1]; amine
  pKa (B): 7.9
[1]; carboxylic acid
  pKa (A): 4.0
[2]
  mean endometrial thickness compared to the pretreatment values: dose dependent decrease
[3]; 150 mg Once Daily (N = 475)
  Suicidal ideation: 1 (0.2) N (%)
  Depressed Mood, depression, depressive symptoms and or tearfulness: 13 (2.7) N (%)
  Mood altered, mood swings: 25 (5.7) N (%)
  Completed Suicide: 1 (0.2) N (%)
[3]; 150 mg QD and 200 mg BID vs placebo at Month 3 and Month 6, p<0.001
  Numeric Rating Scale (NRS) scores of endometriosis pain: significant reduction
[3]; 200 mg BID compared to placebo
  percentage of days per month of the opioid or naproxen rescue medication use: significant reduction
[3]; 200 mg Twice Daily (N = 477)
  Suicidal ideation: 1 (0.2) N (%)
  Depressed Mood, depression, depressive symptoms and or tearfulness: 29 (6.1) N (%)
  Mood altered, mood swings: 25 (5.2) N (%)
  Completed Suicide: 0 N (%)
[3]; after 6 months of 150 mg once daily, within 1 month
  resumption of menses after stopping, % of women: 59%
[3]; after 6 months of 150 mg once daily, within 2 months
  resumption of menses after stopping, % of women: 87%
[3]; after 6 months of 150 mg once daily, within 6 months
  resumption of menses after stopping, % of women: 95%
[3]; after 6 months of 200 mg twice daily, within 1 month
  resumption of menses after stopping, % of women: 60%
[3]; after 6 months of 200 mg twice daily, within 2 months
  resumption of menses after stopping, % of women: 88%
[3]; after 6 months of 200 mg twice daily, within 6 months
  resumption of menses after stopping, % of women: 97%
[3]; after 12 months of 150 mg once daily, within 1 month
  resumption of menses after stopping, % of women: 77%
[3]; after 12 months of 150 mg once daily, within 2 months
  resumption of menses after stopping, % of women: 95%
[3]; after 12 months of 150 mg once daily, within 6 months
  resumption of menses after stopping, % of women: 98%
[3]; after 12 months of 200 mg twice daily, within 1 month
  resumption of menses after stopping, % of women: 55%
[3]; after 12 months of 200 mg twice daily, within 2 months
  resumption of menses after stopping, % of women: 91%
[3]; after 12 months of 200 mg twice daily, within 6 months
  resumption of menses after stopping, % of women: 96%
[3]; both treatment groups, post-treatment months 6 and 12
  recovery of BMD at lumbar spine, total hip and femoral neck: progressive recovery of BMD
[3]; 150 mg daily dose
  patients with a Z-score below the normal lower bound of −2.0: no patient
[3]; 200 mg BID
  patients with a Z-score below the normal lower bound of −2.0: less than 1%
[3]; pooled analysis of two phase 3 trials, 150 QD and 200 BID vs placebo
  percentage of days in which rescue opioid medication was taken: significant reduction
[3]; pooled analysis, 200 mg BID vs placebo
  mean percent daily pill counts (rescue opioid): significant reduction
[4]; moderate hepatic impairment
  exposures in moderate hepatic impairment relative to normal hepatic function: approximately 3 fold
[4]; moderate to severe or end stage renal disease vs normal renal function
  exposures (Cmax and AUC) in renal impairment: not altered
[4]
  exposures in severe hepatic impairment relative to normal hepatic function: approximately 7 fold
[4]; listed as Elagolix
  exposures in severe hepatic impairment relative to normal hepatic function: ~7 fold
[4]; vs women with normal hepatic function
  exposures (Cmax and AUC) in mild hepatic impairment: similar
[5]; [10]
  AUC Ratio (co-administration vs. elagolix alone): 2.20
  Cmax Ratio (co-administration vs. elagolix alone): 1.77
[5]; Rifampin 600 mg once daily
  AUC Ratio (co-administration vs. elagolix alone): 1.65
  Cmax Ratio (co-administration vs. elagolix alone): 2.00
[5]; [11]
  AUC Ratio (co-administration vs. elagolix alone): 5.58
  Cmax Ratio (co-administration vs. elagolix alone): 4.37
[5]; co-administered with rifampin
  direction of the change in AUC of elagolix: ↑ elagolix
[6]
  substrate of OATP1B1: substrate
[7]
  carcinogenicity: tumors: no increase in tumors
[8]; 2-year, high dose, considered species-specific
  carcinogenicity: tumors: increase in thyroid (male and female) and liver (males only) tumors
[8]; both, in vivo, 2 years
  margin of safety at the high dose: 13 fold
[9]
  reproductive organ findings (cervix, uterus and vagina): reversible atrophy of reproductive organs

— patent publication US12083227B2, “Solid pharmaceutical formulations for treating endometriosis, uterine fibroids, polycystic ovary syndrome or adenomyosis” (priority 2017, dated 2024)
